Assay results as given in patent US11504323B2, “Boundary surface charged contact lens for delivery” (Lynthera Corporation, priority 2020, dated 2022).
In brackets after ≈: the same amount, converted by molar mass. Counter-ions that a name gives are not always drawn. Like-named read-outs stand apart in the source and are kept apart here.

Experiments:
[1] = cited from earlier work
[2] = Release of THCL and KTF from oleic acid loaded lenses in PBS at different pH; details: release medium pH from 7.4 to 5.5
[3] = cited from earlier work; remark: listed apart in the source

SMILES	solubility in PBS ([1]; pH 7)	solubility in PBS ([1]; pH 10)	release kinetics of KTF as pH decreases [2]	Solubility in water [3]
CN1CCC(=C2c3ccccc3CC(=O)c3sccc32)CC1 [KTF, ketotifen fumarate]	10500 µg/mL	20 µg/mL	accelerated	
CCCCCCCCCCCCCC(=O)O [Myristic acid]				1 µM (≈ 0.228 µg/mL)
